Results on one compound are retold here after US10392630B2, “Plants having increased tolerance to herbicides” (BASF AGRO B.V., priority 2013, dated 2019).

Molecules are shown by their SMILES. Substitutions are numbered along the chain they refer to.

Holding throughout (experiment): biochemical
Test [1] deals with T1, Amaranthus mutant PPO (AMARE) (Amaranthus tuberculatus, UniProt Q0NZW9, F420M).
T1 sequence (Q0NZW9 1-534 F420M): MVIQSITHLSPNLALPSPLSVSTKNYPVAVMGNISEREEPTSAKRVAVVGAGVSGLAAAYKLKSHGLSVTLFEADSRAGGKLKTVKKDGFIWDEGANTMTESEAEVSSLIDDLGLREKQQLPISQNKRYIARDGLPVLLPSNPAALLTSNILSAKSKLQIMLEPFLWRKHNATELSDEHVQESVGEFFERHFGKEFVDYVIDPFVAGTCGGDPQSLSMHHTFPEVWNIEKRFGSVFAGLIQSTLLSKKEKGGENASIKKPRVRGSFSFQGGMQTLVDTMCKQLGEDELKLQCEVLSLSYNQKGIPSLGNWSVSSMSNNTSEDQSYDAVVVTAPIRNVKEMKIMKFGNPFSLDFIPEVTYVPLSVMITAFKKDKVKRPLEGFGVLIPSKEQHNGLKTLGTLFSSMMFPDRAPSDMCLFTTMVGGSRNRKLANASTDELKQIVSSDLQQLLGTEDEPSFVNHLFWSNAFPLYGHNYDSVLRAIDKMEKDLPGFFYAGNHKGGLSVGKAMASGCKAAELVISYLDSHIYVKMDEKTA

Test [2] deals with T2, Amaranthus mutant PPO (AMARE) (Amaranthus tuberculatus, UniProt Q0NZW9, R128A).
T2 sequence (Q0NZW9 1-534 R128A): T1 sequence (Q0NZW9 1-534 F420M) with R128A, M420F

For test [3], the target named is T3, Amaranthus mutant PPO (AMARE) (Amaranthus tuberculatus, UniProt Q0NZW9, F420I).
T3 sequence (Q0NZW9 1-534 F420I): T1 sequence (Q0NZW9 1-534 F420M) with M420I

The target in test [4] is T4, Amaranthus mutant PPO (AMARE) (Amaranthus tuberculatus, UniProt Q0NZW9, R128I).
T4 sequence (Q0NZW9 1-534 R128I): T1 sequence (Q0NZW9 1-534 F420M) with R128I, M420F

Test [5] has as its target T5, Amaranthus mutant PPO (AMARE) (Amaranthus tuberculatus, UniProt Q0NZW9, R128L).
T5 sequence (Q0NZW9 1-534 R128L): T1 sequence (Q0NZW9 1-534 F420M) with R128L, M420F

In the case of `CC(C)N(C)S(=O)(=O)NC(=O)c1cc(-n2c(=O)cc(C(F)(F)F)n(C)c2=O)c(F)cc1Cl` [saflufenacil], the IC50 in test [1] stood at 677 nM; in test [2], 129 nM; in test [3], 919 nM; in test [4], 365 nM; in test [5], 222 nM.
